Molecules are shown by their SMILES. Where two headings read alike, the source gives them in different places.

This is an account of results in publication PMC3621174, “A cell based high-throughput screening approach for the discovery of new inhibitors of respiratory syncytial virus” (Virology Journal, 2013).

Data set [1] is described as follows: Cytotoxicity dose response in HEp-2 cells (Cell Titer Glo). Format: cell-based. The note with it: human, HEp-2, 8 point dose response, duplicate. How it is done: (§1) Figure 3 Dose response of ribavirin. HEp-2 cells were plated in 384-well black tissue culture plates at 2,000 cells per well. Ribavirin or carrier control (DMSO) were diluted to 6x in Complete DMEM/F12 and serially diluted 1:2 resulting in an 8 point dose response dilution series. (final plate well concentration ranging from 50 uM to 0.39 uM and a final DMSO concentration of 0.5%). For dose response screening, cells were infected with a 1:500 dilution of virus (viral MOI = 0.5). The assay plates were incubated for six days at 37°C, 5% CO2 and 90% relative humidity and the inhibitory effects of the drug were assessed using Cell Titer Glo. […]
(§2) Following the six day incubation period, the assay plates were equilibrated to room temperature for 30 min. […] At the end of the incubation, luminescence was measured using a multi-label reader (Envision, PerkinElmer, Wellesley, MA) with an integration time of 0.1 s.
(§3) HTS data were analyzed using ActivityBase software (IDBS, Inc., Guildford, UK). Antiviral activity is described as percent CPE inhibition = 100*((luminescence compound well minus median luminescence virus control)/ (median luminescence cell control minus median luminescence virus control)). Percent viability = 100 * luminescence compound well/median luminescence cell control. […] Two dose-response curves were calculated for each substance. […] The selective index (SI) was calculated as SI = CC50/EC50. […]
In general terms: In ATP-based viability assays light output follows the ATP content of the culture.

Data set [2] deals with hRSV (strain Long). The data set is described as follows: 384-well CPE inhibition assay, hRSV-infected HEp-2 cells, Cell Titer Glo endpoint. The class given is cell-based. The note with it: human respiratory syncytial virus, 144 h; HEp-2, virus MOI = 0.5, 8 point dose response 50-0.39 uM, 6 days, triplicate; read-out: EC50 (efficacy). How it is done: as §1, §2, §3
In data set [3] the test system is hRSV (strain Long). Also on record: method as in PMID 14638398. The note with it: previously reported value; cited from earlier work.
The test system of the next data set is RSV strain Long. The data set is described as follows: Plaque reduction assay in HEp-2 cells. The class given is cell-based, Human respiratory syncytial virus. The note with it: 25 μM test compound, MOI 0.1, HEp-2. The protocol:
These compounds were evaluated for their ability to reduce the amount of infectious virus produced in cell culture. HEp-2 cells were infected with hRSV in the presence of 25 μM test compound. Media supernatants were removed and 10-fold serial-diluted onto a confluent field of uninfected, untreated HEp-2 cells, bound, washed, and overlaid with agarose. After six days, plaques were fixed, stained, and counted to determine the amount of infectious virus in the original, drugged supernatants (Figure 8).
Figure 8 Plaque reduction assay in HEp-2 cells. RSV strain Long was assayed for its sensitivity to five compounds. Supernatants were harvested from test (25 μM) or control compound (35 μM) treated RSV-infected HEp-2 cells at a multiplicity of infection (MOI) of 0.1. Serial dilutions of the supernatants were added to monolayers of HEp-2 cells in 24-well plates. Cells were fixed after 6 days and stained with neutral red. Plaque reduction assays were performed in triplicate per compound. CC, uninfected cell control; VC, untreated virus-infected control. The concentration of DMSO in each assay well, including all control wells was 0.5%.
Compounds or carrier control (DMSO) were diluted in Complete DMEM/F12 and 2 mL per well was dispensed to 6-well assay plates (final plate well concentration was 25 μM, ribavirin; 35 μM and final DMSO concentration 0.5%). […]

`NC(=O)c1ncn([C@@H]2O[C@H](CO)[C@@H](O)[C@H]2O)n1` [ribavirin] gave a CC50 at 6 days in data set [1] of roughly 75 µM. Besides, the EC50 was roughly 40 µM with hRSV (strain Long) [2] and 41 µM in the data set on hRSV (strain Long) [3]. As to `COc1ccccc1CNC(=O)C1CCN(S(=O)(=O)c2cccc3nonc23)CC1` [compound 93616803], the “reduction in virus titer (pfu/mL) from control” value in the data set with RSV strain Long came to 4 log.

With `O=C(O)C1CC=CCC1C(=O)Nc1ccc(S(=O)(=O)N2CCCc3ccccc32)cc1` (centres unmarked) [SID 93616804], the “reduction in virus titer (pfu/mL) from control” value in the data set on RSV strain Long is reported as 6.5 log.

One may read the CC50 as the concentration that lowers cell viability or growth by half. Low readings indicate harm at low concentration, high ones better tolerance by the cells. One may read the EC50 as the concentration at which the effect is half-maximal.
